# Test results as given in patent publication US6838439B2, “Heterocytes as inhibitors of leucocyte adhesion and as VLA-4 antagonists” (Aventis Pharma Deutschland GmbH, priority 1996, dated 2005).
# Biological target: T1, interaction between VCAM-1 and VLA-4 (VLA-4 on human U937 cells / hVCAM-1(1-3)-IgG) (Homo sapiens, UniProt P05556+P13612)
# T1 construct: offered in their natural form as surface molecules on human U937 cells; host or cells: U937 cells carry the endogenous VLA-4; The partner hVCAM-1(1-3)-IgG was made in house in transfected COS cells (ATCC CRL1651) and used as culture supernatant
# T1 sequence (P13612 34-1032): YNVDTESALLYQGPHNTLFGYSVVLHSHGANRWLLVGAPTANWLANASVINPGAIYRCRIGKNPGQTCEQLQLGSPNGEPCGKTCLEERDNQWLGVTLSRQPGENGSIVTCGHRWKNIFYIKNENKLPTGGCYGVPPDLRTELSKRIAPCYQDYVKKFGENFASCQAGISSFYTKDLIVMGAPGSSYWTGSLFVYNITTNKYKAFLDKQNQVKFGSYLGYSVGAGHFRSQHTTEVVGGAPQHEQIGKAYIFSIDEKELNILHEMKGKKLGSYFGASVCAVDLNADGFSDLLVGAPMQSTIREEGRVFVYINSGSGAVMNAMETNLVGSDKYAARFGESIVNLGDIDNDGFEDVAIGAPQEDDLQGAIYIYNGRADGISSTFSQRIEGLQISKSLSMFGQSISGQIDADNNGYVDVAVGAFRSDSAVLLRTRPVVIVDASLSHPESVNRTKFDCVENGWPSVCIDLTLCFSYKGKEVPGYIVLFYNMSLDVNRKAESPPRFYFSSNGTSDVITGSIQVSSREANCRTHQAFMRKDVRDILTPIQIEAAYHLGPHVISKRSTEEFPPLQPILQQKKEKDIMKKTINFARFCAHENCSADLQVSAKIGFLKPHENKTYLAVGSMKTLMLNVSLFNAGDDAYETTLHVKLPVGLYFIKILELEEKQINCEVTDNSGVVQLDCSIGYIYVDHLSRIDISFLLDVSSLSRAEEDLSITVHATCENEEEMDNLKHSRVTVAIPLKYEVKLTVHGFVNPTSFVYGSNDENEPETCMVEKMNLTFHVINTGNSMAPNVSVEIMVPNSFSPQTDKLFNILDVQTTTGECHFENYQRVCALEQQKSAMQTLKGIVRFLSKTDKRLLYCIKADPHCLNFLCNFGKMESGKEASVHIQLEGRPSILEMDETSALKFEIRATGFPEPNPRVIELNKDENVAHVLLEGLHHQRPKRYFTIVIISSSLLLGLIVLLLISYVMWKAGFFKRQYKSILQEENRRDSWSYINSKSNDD
# T1 sequence (P05556 21-798): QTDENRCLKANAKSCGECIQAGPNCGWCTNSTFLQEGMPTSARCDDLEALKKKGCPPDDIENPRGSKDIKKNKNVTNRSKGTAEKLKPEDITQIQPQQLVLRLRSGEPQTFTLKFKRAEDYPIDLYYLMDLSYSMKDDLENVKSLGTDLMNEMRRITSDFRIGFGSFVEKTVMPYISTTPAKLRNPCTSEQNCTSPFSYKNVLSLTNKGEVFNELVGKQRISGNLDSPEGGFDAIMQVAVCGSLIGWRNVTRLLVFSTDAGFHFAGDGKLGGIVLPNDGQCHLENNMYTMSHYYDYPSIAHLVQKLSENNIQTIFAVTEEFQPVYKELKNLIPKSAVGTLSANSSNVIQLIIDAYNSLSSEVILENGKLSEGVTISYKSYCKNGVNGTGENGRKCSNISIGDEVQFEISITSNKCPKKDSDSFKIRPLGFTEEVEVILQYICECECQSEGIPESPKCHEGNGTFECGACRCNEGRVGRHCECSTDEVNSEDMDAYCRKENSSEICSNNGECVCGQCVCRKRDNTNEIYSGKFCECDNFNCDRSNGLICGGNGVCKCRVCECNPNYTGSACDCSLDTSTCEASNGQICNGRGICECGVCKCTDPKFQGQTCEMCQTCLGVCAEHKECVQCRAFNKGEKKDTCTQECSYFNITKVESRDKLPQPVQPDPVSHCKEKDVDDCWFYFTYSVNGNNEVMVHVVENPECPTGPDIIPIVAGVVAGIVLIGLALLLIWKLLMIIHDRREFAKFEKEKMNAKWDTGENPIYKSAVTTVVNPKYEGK
# Assay: U937/VCAM-1 cell adhesion test: adhesion of U937 cells to hVCAM-1(1-3)-IgG
# Assay type: cell-based
# Settings: inhibition of adhesion of U937 cells (ATCC CRL 1593) to hVCAM-1(1-3)-IgG
# Description: As a test method for the activity of the compounds of the formula Ib on the interaction between VCAM-1 and VLA-4, an assay is used which is specific for this interaction. The cellular binding components, i.e. the VLA-4-integrins, are offered in their natural form as surface molecules on human U937 cells (ATCC CRL 1593), which belong to the group of leucocytes. As specific binding components, recombinant soluble fusion proteins prepared by genetic engineering and consisting of the extracytoplasmic domains of human VCAM-1 and the constant region of a human immunoglobulin of the subclass IgG1 are used.
# Assay for the measurement of the adhesion of U937 cells (ATCC CRL 1593) to hVCAM-1(1-3)-IgG
# 1. Preparation of human VCAM-1(1-3)-IgG and human CD4-IgG
# A genetic construct for the expression of the extracellular domains of human VCAM-1 was employed, associated with the genetic sequence of the heavy chain of human immunoglobulin IgG-1 (hinge, CH2 and CH3 regions), from Dr. Brian Seed, Massachusetts General Hospital, Boston, USA. The soluble fusion protein hVCAM-1(1-3)-IgG contained the three amino-terminal extracellular immunoglobulin-like domains of human VCAM-1 (Damle and Aruffo, Proc. Natl. Acad. Sci. USA 1991, 88, 6403). CD4-IgG (Zettlmeissl et al., DNA and Cell Biology 1990, 9, 347) served as a fusion protein for negative controls. The recombinant proteins were expressed as soluble proteins after DEAE/dextran-mediated DNA-transfection in COS cells (ATCC CRL1651) according to standard procedures (Ausubel et al., Current protocols in molecular biology, John Wiley & Sons, Inc., 1994).
# 2. Assay for measurement of the adhesion of U937 cells to hVCAM-1(1-3)-IgG
# 2.1 96-well microtiter test plates (Nunc Maxisorb) were incubated at room temperature for 1 hour with 100 μl/well of a goat-anti-human IgG antibody solution (10 μg/ml in 50 mM Tris, pH 9.5). After removing the antibody solution, washing was carried out once with PBS.
# 2.2 150 μl/well of a blocking buffer (1% BSA in PBS) was incubated on the plates at room temperature for 0.5 hours. After removing the blocking buffer, washing was carried out once with PBS.
# 2.3 100 μl per well of a cell culture supernatant of transfected COS cells were incubated on the plates at room temperature for 1.5 hours. The COS cells were transfected with a plasmid which codes for the three N-terminal immunoglobulin-like domains of VCAM-1, coupled to the Fc part of human IgG1 (hVCAM-1(1-3)-IgG). The content of hVCAM-1(1-3)-IgG was about 0.5-1 μg/ml. After removing the culture supernatant, washing was carried out once with PBS.
# 2.4 The plates were incubated at room temperature for 20 minutes with 100 μl/well of Fc receptor blocking buffer (1 mg/ml of γ-globulin, 100 mM NaCl, 100 μM MgCl2, 100 μM MnCl2, 100 μM CaCl2, 1 mg/ml BSA in 50 mM HEPES, pH 7.5). After removing the Fc receptor blocking buffer, washing was carried out once with PBS.
# 2.5 20 μl of binding buffer (100 μM NaCl, 100 μM MgCl2, 100 μM MnCl2, 100 μM CaCl2, 1 mg/ml BSA in 50 mM HEPES, pH 7.5), were initially introduced, the substances to be tested were added in 10 μl of binding buffer and the mixture was incubated for 20 minutes. As controls, antibodies against VCAM-1 (BBT, No. BBA6) and against VLA-4 (Immunotech, No. 0764) were used.
# 2.6 U937 cells were incubated in Fc receptor blocking buffer for 20 minutes and then pipetted in at a concentration of 1×10^6/ml and in an amount of 100 μl per well ([…]).
# 2.7 The plates were slowly immersed at an angle of 45° in stop buffer (100 mM NaCl, 100 μM MgCl2, 100 μM MnCl2, 100 μM CaCl2 in 25 mM Tris, pH 7.5) and shaken off. The process was repeated.
# 2.8 50 μl/well of a dye solution (16.7 μg/ml of Hoechst dye 33258, 4% formaldehyde, 0.5% Triton X-100 in PBS) were then incubated on the plates for 15 minutes.
# 2.9 The plates were shaken off and slowly immersed at an angle of 45° in stop buffer (100 mM NaCl, 100 μM MgCl2, 100 μM MnCl2, 100 μM CaCl2 in 25 mM tris, pH 7.5). The process was repeated. […]
row,IC50,SMILES
1,9 µM,"CC1(c2ccc(CNC(=O)Nc3ccccc3)cc2)C(=O)N(CC(=O)N[C@@H](CC(=O)O)C(=O)N[C@H](C(=O)O)c2ccccc2)C(=O)N1Cc1ccccc1 (mixture of isomers) [Example 5, ((RS)-3-Benzyl-4-methyl-4-(4-(3-phenylureidomethyl)phenyl)-2,5-dioxoimidazolidin-1-yl)acetyl-L-aspartyl-L-phenylglycine]"
2,30 µM,CC1(c2ccc(C#N)cc2)C(=O)N(CC(=O)N[C@@H](CC(=O)O)C(=O)N[C@H](C(=O)O)c2ccccc2)C(=O)N1Cc1ccc2ccccc2c1 (stereo partly shown) [Example 1]
3,27.7 µM,"CC1(c2ccc([N+](=O)[O-])cc2)C(=O)N(CC(=O)N[C@@H](CC(=O)O)C(=O)N[C@H](C(=O)O)c2ccccc2)C(=O)N1Cc1ccccc1 (stereo partly drawn) [Example 2, ((R,S)-3 -Benzyl-4-methyl-4-(4-nitrophenyl)-2,5-dioxoimidazolidin-1-yl)acetyl-L-aspartyl-L-phenylglycine]"
4,2.8 µM,"Cc1ccccc1NC(=O)Nc1ccc(C2(C)C(=O)N(CC(=O)N[C@@H](CC(=O)O)C(=O)N[C@H](C(=O)O)c3ccccc3)C(=O)N2Cc2ccccc2)cc1 (stereo partly drawn) [Example 3, ((R,S)-3-Benzyl-4-methyl-4-(4-(3-(2-methylphenyl)ureido)phenyl)-2,5-dioxoimidazolidin-1-yl)acetyl-L-aspartyl-L-phenylglycine]"
5,14 µM,"CC1(c2ccc(CNC(=O)NCc3ccccc3)cc2)C(=O)N(CC(=O)N[C@@H](CC(=O)O)C(=O)N[C@H](C(=O)O)c2ccccc2)C(=O)N1Cc1ccccc1 (stereo partly drawn) [Example 4, ((R,S)-3-Benzyl-4-(4-(3-benzylureidomethyl)phenyl)-4-methyl-2,5-dioxoimidazolidin-1-yl)acetyl-L-aspartyl-L-phenylglycine]"
6,6.5 µM,"Cc1ccccc1NC(=O)NCc1ccc(C2(C)C(=O)N(CC(=O)N[C@@H](CC(=O)O)C(=O)N[C@H](C(=O)O)c3ccccc3)C(=O)N2Cc2ccccc2)cc1 (stereo partly drawn) [Example 6, ((R,S)-3 -Benzyl-4-methyl-4-(4-(3-(2-methylphenyl)ureidomethyl)phenyl)-2,5-dioxoimidazolidin-1-yl)acetyl-L-aspartyl-L-phenylglycine]"
7,20 µM,"CC1(c2ccc(CNC(=O)NCCc3ccccc3)cc2)C(=O)N(CC(=O)N[C@@H](CC(=O)O)C(=O)N[C@H](C(=O)O)c2ccccc2)C(=O)N1Cc1ccccc1 (stereo partly drawn) [Example 7, ((R,S)-3-Benzyl-4-methyl-4-(4-(3-(2-phenylethyl)ureidomethyl)phenyl)-2,5-dioxoimidazolidin-1-yl)acetyl-L-aspartyl-L-phenylglycine]"
